Data on seven compounds can be found in US20090286816A1, “MODULATORS OF METABOLISM AND THE TREATMENT OF DISORDERS RELATED THERETO” (ARENA PHARMACEUTICALS, INC., priority 2006, published 2009).

The nature of data set [1]: Rat dose-range PK study (dose escalation pharmacokinetics). The conditions noted are these: for AUC(0-t): male, SD, plasma, PO, read-out: AUC24 hr. In kind it is in vivo. The procedure:
Male SD rats (250-300 g) were purchased from Charles River Laboratory; upon receipt, animals were placed under light-dark cycle (6:30 am-6:30 pm lights on). They were allowed ad libitum access to water and 4 pieces of food daily (Purina Meals Rodent Diet, Product Number 5001).
Compound formulations were prepared as following: The IV injection formulation was prepared in 20% hydroxypropyl-beta-cyclodextrin with concentration of 0.667 mg/mL. […] The dosing volume for IV injection was 3 mL/Kg and for PO administration was 10 mL/Kg. Four rats were used for each dose group. […]
All rats (4 rats per group, housed individually) were fasted overnight prior to in-life phase. On the next morning, rats were received an IV (via tail vein injection) injection or gavage dose of compound starting at 8 am (IV) and 9 am (PO). Next, each rat were orbital bled at 0.085, 0.25, 0.5, 1, 2, 4, 6, 8, and 24 hr (IV) or 0.5, 1, 2, 4, 6, 8, and 24 hr (PO) to collect blood samples for PK analysis.
The blood samples were collected via orbital bleeding into tubes containing EDTA, 0.25 mL blood each time. These samples were put on ice and within 2 hours plasma was prepared by centrifugation at 3,000 rpm for 30 min at 4° C. 100 μl of plasma were transferred into a 96-tube box for PK analysis.
Plasma samples were prepared as follows. Two hundred microliters of acetonitrile containing internal standard was added to 100 μL of plasma to precipitate proteins. Samples were centrifuged at 3000 g for 5 minutes and supernatant removed for analysis by LC-MS-MS. Calibration standards and quality control samples were prepared by adding a known volume of standard stock solution (50% methanol, 50% H2O) directly into blank plasma and treated identically to collected plasma samples. Calibration standards were typically prepared in the range of 2.0 ng/mL to 110 μg/mL with linear regression for quantitation. These sample preparation steps were automated using a liquid handling workstation (Tomtec Quadra 96) in the 96-well format. Reversed phase LC-MS-MS analysis was performed using either multiple reaction or selected ion monitoring for detection of characteristic ions for each drug candidate and the internal standard used was propranolol for positive ions or chloramphenicol for negative ions.
Results were calculated by noncompartmental analysis using WinNonlin Pro version 3.1 based on plasma concentration-time profiles for individual animals. Plasma levels were determined as described above and the oral and intravenous area under the concentration vs. time curve (AUC was calculated using the linear trapezoidal rule up to the last measurable concentration and was then extrapolated to infinity) were compared to determine the % bioavailability (% F) by the following formula: Dose (IV)*AUC (oral)/Dose (oral)*AUC (IV).
There may be significant variation within the individual animals and the analytical method and that variation was evidenced by the % CV. AUMC was the first statistical moment of the AUC and was used to calculate the mean residence time (MRT=AUMC/AUC), which was the average time the compound was in the animal. The Cmax represented the maximum concentration observed, the Tmax was the time to reach that maximum concentration and the T1/2 was the calculated terminal half-life of the compound in plasma using the slope of a log concentration vs time plot if there were sufficient elimination phase data points (at least three data points in the terminal phase excluding the Cmax). Systemic clearance (CL=Dose(IV)/AUC(IV)) was the volume of fluid (containing compound) from which compound was removed completely per unit time. Volume of distribution at steady state (Vss=CL*MRT) was the extent of distribution of a drug from the plasma to the tissues at steady state.

The subject of the next data set is Male Sprague Dawley rats. Put plainly: Oral glucose tolerance test (oGTT) in rats. The data set is classed as in vivo, rat. To be noted: fasted male SD rats, p.o. 30 min before dextrose 3 g/kg, mean of six animals, dose of the group not stated (0.3, 3 or 30 mg/kg tested). As to the method:
Male Sprague Dawley rats (Harlan, San Diego, Calif.) weighing approximately 350-375 g were fasted for 16 hours and randomly grouped (n=6) to receive a RUP3 agonist at 0.3, 3 or 30 mg/kg. Compounds were delivered orally via a gavage needle (p.o., volume 2 mL/kg). At time 0, levels of blood glucose were assessed using a glucometer (Accu-Chek Advantage, Roche Diagnostics), and rats were administered either vehicle (20% hydroxypropyl-beta-cyclodextrin) or test compound. Thirty minutes after administration of test compound, levels of blood glucose were again assessed, and rats were administered dextrose orally at a dose of 3 g/kg. Blood glucose measurements were then taken 30 min, 60 min, and 120 min after this time.

In data set [2] the target is T1, RUP3 receptor (Homo sapiens, UniProt Q8TDV5).
T1 construct: expressed in transfected cells; host or cells: melanophores (cultured per Potenza and Lerner 1992), electroporated
T1 sequence (Q8TDV5 1-335): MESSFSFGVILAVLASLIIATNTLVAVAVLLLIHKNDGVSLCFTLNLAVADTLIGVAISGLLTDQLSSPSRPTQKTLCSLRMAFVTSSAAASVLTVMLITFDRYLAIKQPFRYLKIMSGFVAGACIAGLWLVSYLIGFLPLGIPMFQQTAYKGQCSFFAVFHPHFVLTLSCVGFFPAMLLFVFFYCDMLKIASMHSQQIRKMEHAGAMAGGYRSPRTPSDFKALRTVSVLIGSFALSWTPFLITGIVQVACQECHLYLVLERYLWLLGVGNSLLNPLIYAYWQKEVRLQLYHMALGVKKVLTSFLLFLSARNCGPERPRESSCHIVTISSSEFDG
In words: RUP3 dose response in melanophores (human receptor). The data set is classed as cell-based. The procedure:
(§1) Melanophores are maintained in culture as reported by Potenza, M. N. and Lerner, M. R., in Pigment Cell Research, Vol. 5, 372-378, 1992 and transfected with the RUP3 expression vector (pCMV) using electroporation. Following electroporation, the transfected cells are plated into 96 well plates for the assay. The cells are then allowed to grow for 48 hours in order to both recover from the electroporation procedure and attain maximal receptor expression levels. On the assay day, the growth medium on the cells is replaced with serum-free buffer containing 10 nM melatonin. The melatonin acts via an endogenous Gi-coupled GPCR in the melanophores to lower intracellular cAMP levels. In response to lowered cAMP levels, the melanophores translocate their pigment to the center of the cell. The net effect of this is a significant decrease in the absorbance reading of the cell monolayer in the well, measured at […]. After a 1-hour incubation in melatonin, the cells become completely pigment-aggregated. At this point a baseline absorbance reading is collected. Serial dilutions of test compounds are then added to the plate and compounds that stimulate RUP3 produce increases in intracellular cAMP levels. […] The measured increase in absorbance compared to the baseline reading allows one to quantitate the degree of receptor stimulation and plot a dose-response curve.

In data set [3] the target is T2, RUP3 receptor (Canis lupus familiaris, UniProt A0A8I3QZL6).
T2 sequence (A0A8I3QZL6 1-335): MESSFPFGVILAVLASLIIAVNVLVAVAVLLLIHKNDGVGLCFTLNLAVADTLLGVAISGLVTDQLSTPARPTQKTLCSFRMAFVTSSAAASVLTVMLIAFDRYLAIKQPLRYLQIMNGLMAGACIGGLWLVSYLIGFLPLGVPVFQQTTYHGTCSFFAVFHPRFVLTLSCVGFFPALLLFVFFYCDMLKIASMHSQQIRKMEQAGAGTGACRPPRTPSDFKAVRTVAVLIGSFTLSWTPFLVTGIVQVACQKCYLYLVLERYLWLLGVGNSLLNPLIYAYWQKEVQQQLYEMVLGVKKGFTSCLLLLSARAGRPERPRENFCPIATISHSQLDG
In words: RUP3 dose response in melanophores (dog receptor). In kind it is cell-based. The procedure:
as §1

Data set [4] deals with T3, RUP3 receptor (Mus musculus, UniProt Q7TQP3).
T3 construct: expressed in transfected cells; host or cells: melanophores (cultured per Potenza and Lerner 1992), electroporated
T3 sequence (Q7TQP3 1-335): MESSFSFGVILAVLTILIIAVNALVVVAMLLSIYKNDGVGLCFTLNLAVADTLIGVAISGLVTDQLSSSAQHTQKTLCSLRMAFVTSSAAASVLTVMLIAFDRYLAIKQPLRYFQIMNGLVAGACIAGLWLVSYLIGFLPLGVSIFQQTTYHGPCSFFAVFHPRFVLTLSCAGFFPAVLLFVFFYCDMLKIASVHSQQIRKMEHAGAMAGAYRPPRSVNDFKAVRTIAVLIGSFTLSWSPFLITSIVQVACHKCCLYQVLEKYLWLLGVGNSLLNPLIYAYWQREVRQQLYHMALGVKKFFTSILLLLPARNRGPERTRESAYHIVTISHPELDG
In words: RUP3 dose response in melanophores (mouse receptor). In kind it is cell-based. As to the method:
as §1

In data set [5] the target is T4, RUP3 receptor (Rattus norvegicus, UniProt Q7TQN8).
T4 construct: expressed in transfected cells; host or cells: melanophores (cultured per Potenza and Lerner 1992), electroporated
T4 sequence (Q7TQN8 1-468): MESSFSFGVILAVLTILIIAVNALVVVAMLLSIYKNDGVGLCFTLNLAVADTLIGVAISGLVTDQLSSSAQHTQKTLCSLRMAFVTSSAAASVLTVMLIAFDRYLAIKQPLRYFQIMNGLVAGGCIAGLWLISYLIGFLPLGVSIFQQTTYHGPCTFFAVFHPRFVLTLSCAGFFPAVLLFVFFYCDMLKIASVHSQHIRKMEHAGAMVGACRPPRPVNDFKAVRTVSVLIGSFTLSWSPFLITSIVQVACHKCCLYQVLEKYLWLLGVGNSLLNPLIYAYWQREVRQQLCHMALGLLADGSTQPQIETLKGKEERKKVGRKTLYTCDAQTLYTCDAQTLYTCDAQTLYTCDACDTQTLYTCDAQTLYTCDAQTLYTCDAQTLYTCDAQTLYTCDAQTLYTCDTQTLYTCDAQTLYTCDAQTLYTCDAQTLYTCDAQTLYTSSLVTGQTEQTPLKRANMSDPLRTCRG
In words: RUP3 dose response in melanophores (rat receptor). The data set is classed as cell-based. As to the method: as §1

Where two headings read alike, the source gives them in different places.

As to `CC(C)OC(=O)N1CCC(Oc2ncnc3c2cnn3-c2ccc(S(C)(=O)=O)cc2F)CC1` [Compound A, 4-[1-(2-Fluoro-4-methanesulfonyl-phenyl)-1H-pyrazolo[3,4-d]pyrimidin-4-yloxy]-piperidine-1-carboxylic acid isopropyl ester], the AUC(0-t) in data set [1] (dose 10 mg) came to 2590 ng·h/mL; in data set [1] (dose 30 mg) it was 9930 ng·h/mL; in data set [1] (dose 100 mg), 133000 ng·h/mL; in data set [1] (dose 300 mg), 97000 ng·h/mL; in data set [1] (dose 1000 mg) it was 377000 ng·h/mL.
As to `Cc1c(Nc2ccc(S(C)(=O)=O)cc2F)ncnc1OC1CCN(c2nc(C(C)C)no2)CC1` [Compound B, (2-Fluoro-4-methanesulfonyl-phenyl)-{6-[1-(3-isopropyl-[1,2,4]oxadiazol-5-yl)-piperidin-4-yloxy]-5-methyl-pyrimidin-4-yl}-amine], the AUC(0-t) in data set [1] (dose 3 mg) was 2120 ng·h/mL; in data set [1] (dose 30 mg) it was 5990 ng·h/mL; in data set [1] (dose 300 mg) it was 11000 ng·h/mL.
For `COc1c(Nc2ccc(S(C)(=O)=O)nc2C)ncnc1OC1CCN(C(=O)OC(C)C)CC1` [Compound C, 4-[6-(6-Methanesulfonyl-2-methyl-pyridin-3-ylamino)-5-methoxy-pyrimidin-4-yloxy]-piperidine-1-carboxylic acid isopropyl ester], the AUC(0-t) in data set [1] (dose 3 mg) stood at 14900 ng·h/mL; in data set [1] (dose 30 mg) it was 65900 ng·h/mL; in data set [1] (dose 300 mg), 419000 ng·h/mL.
In the same order, the values of `COc1c(Nc2cnc(S(C)(=O)=O)cc2C)ncnc1OC1CCN(C(=O)OC(C)C)CC1` [Compound D, 4-[6-(6-Methanesulfonyl-4-methyl-pyridin-3-ylamino)-5-methoxypyrimidin-4-yloxy]-piperidine-1-carboxylic acid isopropyl ester] are 5600 ng·h/mL, 29400 ng·h/mL and 54700 ng·h/mL.
Take `Cc1nc(S(C)(=O)=O)ccc1Nc1ncnc(OC2CCN(C(=O)OC(C)C)CC2)c1C` [Compound E, 4-[6-(6-methanesulfonyl-2-methyl-pyridin-3-ylamino)-5-methyl-pyrimidin-4-yloxy]-piperidine-1-carboxylic acid isopropyl ester]: the AUC(0-t) in data set [1] (dose 3 mg) is 4730 ng·h/mL; in data set [1] (dose 30 mg), 55900 ng·h/mL; in data set [1] (dose 300 mg) it was 515000 ng·h/mL.
For the compound `COc1c(Nc2ccc(S(C)(=O)=O)nc2C)ncnc1OC1CCN(c2nc(C(C)C)no2)CC1` [Compound G, {6-[1-(3-Isopropyl-[1,2,4]oxadiazol-5-yl)-piperidin-4-yloxy]-5-methoxy-pyrimidin-4-yl}-(6-methanesulfonyl-2-methyl-pyridin-3-yl)-amine], the AUC(0-t) came to 1660 ng·h/mL in data set [1] (dose 3 mg), 6470 ng·h/mL in data set [1] (dose 30 mg) and 33800 ng·h/mL in data set [1] (dose 300 mg).
With `COc1c(Nc2ccc(-n3cncn3)nc2C)ncnc1OC1CCN(C(=O)OC(C)C)CC1` [Compound of Formula (I), 4-[5-Methoxy-6-(2-methyl-6-[1,2,4]triazol-1-yl-pyridin-3-ylamino)-pyrimidin-4-yloxy]-piperidine-1-carboxylic acid isopropyl ester], in the data set with Male Sprague Dawley rats, the “mean percent inhibition of glucose excursion” value was found to be 60%. In addition, the EC50 at RUP3 receptor [2] came out at 2 nM; on RUP3 receptor [3] it was 4 nM; on RUP3 receptor [4], 57 nM; on RUP3 receptor [5] it was 81 nM. For the same compound, in data set [1] (PO 3, 30, 300 mg/Kg, FIG. 1), the “dose escalation pharmacokinetics (AUC vs dose)” value is given as “essentially linear”. Also, the AUC(0-t) in data set [1] (dose 3 mg) stood at 3590 ng·h/mL; in data set [1] (dose 30 mg) it was 79800 ng·h/mL; in data set [1] (dose 300 mg) it was 286000 ng·h/mL.
